Holding throughout (format): cell-based
The subject of one assay is HIV-1 ADA. In words: Infectivity of virions from HIV-1 ADA-infected macrophages on indicator P4-CCR5 cells. To be noted: TO-901317 500 nM from day 7 after infection for 7 more days; virions adjusted according to p24; versus virions from untreated cells. As to the method: (§1) Human monocyte-derived macrophages were infected with HIV-1 ADA or mock-infected, and 7 days after infection were treated or not with LXR agonist, TO-901317 (500 nM), for 7 more days.
B—Virions were collected from culture supernatants of LXR agonist-treated and untreated (control) cells on day 10 and day 14 (pooled together), adjusted according to p24 content and analyzed for infectivity on indicator P4-CCR5 cells. Experiment was performed in triplicate and results (mean±SD) are presented as percent infectivity of virions produced by control cells; *p<0.001.
(§2) To determine whether impairment of cholesterol efflux has a role in HIV biology, we compared infectivity of HIV virions produced from monocyte-derived macrophages stimulated or not with an LXR agonist, TO-901317. We hypothesized that if impairment of cholesterol efflux is a specific mechanism to increase HIV replication, then agents counteracting this effect should have anti-HIV activity. […] Virions were collected from TO-901317-treated and untreated cells, adjusted according to p24 content, and analyzed for infectivity using indicator P4-CCR5 cells.
Infectivity assay. Virus infectivity was analyzed using P4-CCR5 indicator cells that express B-galactosidase under control of HIV-1 LTR. […] The plate was incubated at 37° C. for 1.5 hours and OD readings were taken at 420 nm.

In the next assay the test system is HIV-1 ADA virions. In words: Analysis of virion-associated cholesterol ([3H]cholesterol incorporation into virions). To be noted: virions from macrophages treated with 500 nM TO-901317 versus untreated cells; normalized according to p24. The method, then:
C—Incorporation of [^3H]cholesterol into virions produced by LXR agonist-treated and untreated (control) cells was measured in triplicate and results (mean±SD) are presented relative to cholesterol in the virions produced by control cells; *p<0.001.
as §2, with “activity. LXR agonists up-regulate expression of ABCA1 at a transcriptional level and stimulate cholesterol efflux from various cell types, including human monocyte-derived macrophages ([47] and FIG. 9A).” for “activity.”
Analysis of virion-associated cholesterol. […] Culture supernatants were collected every 3 days over the period of 2 weeks, pooled, and virions were pelleted by ultracentrifugation, normalized according to p24 value, and the amount of incorporated [^3H]cholesterol counted on a beta-counter.

The test system of assay [1] is Human monocyte-derived macrophages infected with HIV-1 ADA. In words: Cholesterol efflux to apoA-I from HIV-1 ADA-infected monocyte-derived macrophages. To be noted: TO-901317 500 nM added at day 7 after infection, kept 7 more days; efflux measured on day 21 after infection. The method, then:
as §1
A—Cholesterol efflux to apoA-I was measured on day 21 after infection. *p<0.01 (versus uninfected cells not treated with TO-901317), *p<0.01 (versus HIV-infected cells not treated with TO-901317).
as §2, with “activity. LXR agonists up-regulate expression of ABCA1 at a transcriptional level and stimulate cholesterol efflux from various cell types, including human monocyte-derived macrophages ([47] and FIG. 9A).” for “activity.”
Cholesterol and phospholipid efflux from RAW264.7 cells. […] For cholesterol efflux analysis, aliquots of medium and cells were counted. […] The efflux was calculated as radioactivity in the medium/(radioactivity in the medium+radioactivity remaining in the cells)×100%. […]

On to `O=S(=O)(c1ccccc1)N(CC(F)(F)F)c1ccc(C(O)(C(F)(F)F)C(F)(F)F)cc1` [TO-901317], for which, in the assay on HIV-1 ADA, the “reduction of infectivity of virions produced from macrophages treated with LXR agonist” value is “about 80%”. In the assay on HIV-1 ADA virions, the virion-associated cholesterol result was “significantly diminished”. Further, the “effect on impairment of cholesterol efflux to apoA-I by HIV-1 infection” value in assay [1] was “prevented the impairment of cholesterol efflux”.

The values are drawn from patent publication US8470526B2, “Method of suppressing human immunodeficiency virus (HIV) replication in a subject by administering a liver X receptor (LXR) agonist” (The George Washington University, priority 2005, dated 2013).
